Results published in patent US11155558B2, “Dual mode of action soluble guanylate cyclase activators and phosphodiesterase inhibitors and uses thereof” (TOPADUR PHARMA AG, priority 2017, dated 2021).

Assays:
[1] = biological target: recombinant human (rh) PDE5A (Homo sapiens (Human), UniProt O76074); experiment: Phosphodiesterase-5 activity assay (Example 110), radiometric SPA; assay type: biochemical
Method: The inhibition of recombinant human (rh) PDE5A by test compounds is measured in a radiometric assay based on Scintillation Proximity Assay (SPA) technology. The substrate [3H]cGMP/cGMP is hydrolysed to [3H] 5′ GMP/5′ GMP contingent on the activity of rhPDE5A. The ensuing [3H] 5′ GMP/5′ GMP but not [3H] cGMP/cGMP binds to SPA yttrium silicate beads in the presence of Zn^++ stimulating the scintillant within the bead to emit light that is detected by a ß-counter. The assay is performed in a 96 well format.
The assay is done in 20 mM Tris HCl pH 7.4, 5 mM MgCl2, […] cGMP/[3H] cGMP (about 60000 dpm/well) substrate with rhPDE5A1 (GST tagged, SIGMA E9034) added to an amount not exceeding 20% cGMP hydrolysis within 20 min in Tris 20 mM pH 7.4 supplemented with 0.01% bovine serum albumin (BSA) in the presence of test compounds or vehicle (0.1% DMSO). The final assay volume amounts to 100 μl and the reaction is run for 20 min at 37° C.
The hydrolysis of [3H] cGMP/cGMP by rhPDE5A is terminated by adding SPA beads at 50 µl/well (Perkin Elmer, RPNQ0024), pre-diluted in water as per manufacturer's instructions and supplemented with 3-isobutyl-1-methylxanthine (1 mM). Beads are allowed to sediment for at least 30 min before measurement in a Wallac Microbeta 2 (Perkin Elmer).
In general, test compounds are added at seven different concentrations from […] in log steps. […] Results (IC50) are given as the mean from at least two independent experiments each performed in triplicate.

[2] = biological target: PDE5 enzyme isolated from human platelets (Homo sapiens (Human), UniProt O76074); experiment: PDE5 assay (Example 109), formation of 5′GMP from cGMP, SPA; conditions: for % inhibition at 5.0E−09 M: percent inhibition of control enzyme activity at 5.0E−09 M, assay of Example 109;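 on all read-outs here: tritiated 5′GMP counted by scintillation after SPA bead capture, enzyme reaction run 60 min at 22 °C, basal control is the mixture without enzyme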
Method: Evaluation of the effects of compounds of the present invention on the activity of the human phosphodiesterase-5 quantified by measuring the formation of 5′GMP from cGMP using PDE5 enzyme isolated from human platelets.
Thereafter, the reaction is initiated by addition of the enzyme and the mixture is incubated for 60 min at 22° C.
For basal control measurements, the enzyme is omitted from the reaction mixture. Following incubation SPA beads are added. After 20 min at 22° C. under shaking, the amount of [3H]5′GMP is quantified with a scintillation counter (Topcount, Packard).
The standard inhibitory reference compound is dipyridamole, which is tested in each experiment at several concentrations to obtain an inhibition curve from which its IC50 value is calculated.

[3] = Measurements of human plasma protein binding; assay type: in vitro ADME; conditions: for recovery: human
Method: An aliquot of 200 μL of human plasma containing test compound was spiked into donor well (red chamber) of the insert. 350 μL of PBS was spiked into receiver well (white chamber) of the insert.
The samples were matrix equilibrated with opposite matrix (25 μL of plasma/buffer sample was matched with 25 μL of blank buffer/plasma). Matrix matched samples were precipitated with 200 μL of acetonitrile containing internal standard. Samples were vortexed at 1000 rpm for 5 min and centrifuged at 4000 rpm for 10 min. Supernatant was separated, diluted 2 fold with water and analysed in LC-MS/MS. TO control samples were processed immediately after the preparation of plasma working stock solutions. These samples serves as a measure for calculating the percentage recovery of test compounds.

Row | Compound | % inhibition at 5.0E−09 M [2] | IC50 [2] | further results
1 | CCCOc1ccc(S(=O)(=O)N2CCC(CO[N+](=O)[O-])(CO[N+](=O)[O-])CC2)cc1-c1nc2c(CCC)cn(C)c2c(=O)[nH]1 [Compound 3i, (1-((3-(5-methyl-4-oxo-7-propyl-4,5-dihydro-3H-pyrrolo[3,2-d]pyrimidin-2-yl)-4-propoxyphenyl)sulfonyl)piperidine-4,4-diyl)bis(methylene) dinitrate] |  |  | IC50 [1]: 14 nM
2 | CCCOc1ccc(S(=O)(=O)N2CCC(CCO[N+](=O)[O-])CC2)cc1-c1nc2c(CCC)cn(C)c2c(=O)[nH]1 [Compound 3a, 2-(1-((3-(5-methyl-4-oxo-7-propyl-4,5-dihydro-3H-pyrrolo[3,2-d]pyrimidin-2-yl)-4-propoxyphenyl)sulfonyl)piperidin-4-yl)ethyl nitrate] | 6.5% |  | 
3 | CCCOc1ccc(S(=O)(=O)N2CCN(CCO)CC2)cc1-c1nc2c(CCC)cn(CC)c2c(=O)[nH]1 [mirodenafil, 5-ethyl-2-(5-((4-(2-hydroxyethyl)piperazin-1-yl)sulfonyl)-2-propoxyphenyl)-7-propyl-3,5-dihydro-4H-pyrrolo[3,2-d]pyrimidin-4-one, reference compound] | 64.9% | 0.34 nM | % Bound in Plasma [3]: 98.94%; fraction unbound [3]: 0.0106; recovery [3]: 99.2%
4 | CCCc1c(/C=N/O)n(C)c2c(=O)[nH]c(-c3cc(S(=O)(=O)N4CCC(CCO[N+](=O)[O-])CC4)ccc3OCC)nc12 [Compound 2a, (E)-2-(1-((4-ethoxy-3-(6-((hydroxyimino)methyl)-5-methyl-4-oxo-7-propyl-4,5-dihydro-3H-pyrrolo[3,2-d]pyrimidin-2-yl)phenyl)sulfonyl)piperidin-4-yl)ethyl nitrate] | 13.4% | 2 nM | 
5 | CCCOc1ccc(S(=O)(=O)N2CCN(CCO[N+](=O)[O-])CC2)cc1-c1nc2c(CCC)c(/C=N/O)n(CC)c2c(=O)[nH]1 [Compound 1a, (E)-2-(4-((3-(5-ethyl-6-((hydroxyimino)methyl)-4-oxo-7-propyl-4,5-dihydro-3H-pyrrolo[3,2-d]pyrimidin-2-yl)-4-propoxyphenyl)sulfonyl)piperazin-1-yl)ethyl nitrate] | 20.7% | 12 nM | 
6 | CCCOc1ccc(S(=O)(=O)N2CCC(CCO)CC2)cc1-c1nc2c(CCC)c(/C=N/O)n(CC)c2c(=O)[nH]1 [Compound 8, (E)-5-ethyl-2-(5-((4-(2-hydroxyethyl)piperidin-1-yl)sulfonyl)-2-propoxyphenyl)-4-oxo-7-propyl-4,5-dihydro-3H-pyrrolo[3,2-d]pyrimidine-6-carbaldehyde oxime] | 71.2% | 2.7 nM | 
7 | CCCOc1ccc(S(=O)(=O)N2CCN(CCO)CC2)cc1-c1nc2c(CCC)cn(C)c2c(=O)[nH]1 [Compound 32, 2-(5-((4-(2-hydroxyethyl)piperazin-1-yl)sulfonyl)-2-propoxyphenyl)-5-methyl-7-propyl-3,5-dihydro-4H-pyrrolo[3,2-d]pyrimidin-4-one] | 53.4% |  | 
8 | CCCc1cn(C)c2c(=O)[nH]c(-c3cc(S(=O)(=O)N4CCN(CCO)CC4)ccc3OCC)nc12 [Compound 20, 2-(2-ethoxy-5-((4-(2-hydroxyethyl)piperazin-1-yl)sulfonyl)phenyl)-5-methyl-7-propyl-3,5-dihydro-4H-pyrrolo[3,2-d]pyrimidin-4-one] | 41.1% |  | 
9 | CCCc1cn(C)c2c(=O)[nH]c(-c3cc(S(=O)(=O)N4CCN(CCCO)CC4)ccc3OCC)nc12 [Compound 23, 2-(2-ethoxy-5-((4-(3-hydroxypropyl)piperazin-1-yl)sulfonyl)phenyl)-5-methyl-7-propyl-3,5-dihydro-4H-pyrrolo[3,2-d]pyrimidin-4-one] | 36.7% |  | 
10 | CCCc1cn(C)c2c(=O)[nH]c(-c3cc(S(=O)(=O)N4CCC(CCO[N+](=O)[O-])CC4)ccc3OCC)nc12 [Compound 2c, 2-(1-((4-ethoxy-3-(5-methyl-4-oxo-7-propyl-4,5-dihydro-3H-pyrrolo[3,2-d]pyrimidin-2-yl)phenyl)sulfonyl)piperidin-4-yl)ethyl nitrate] |  |  | % Bound in Plasma [3]: 99.65%; fraction unbound [3]: 0.0035; recovery [3]: 105%
11 | CCCOc1ccc(S(=O)(=O)N2CCC(CCO)CC2)cc1-c1nc2c(CCC)cn(C)c2c(=O)[nH]1 [Compound 29, 2-(5-((4-(2-hydroxyethyl)piperidin-1-yl)sulfonyl)-2-propoxyphenyl)-5-methyl-7-propyl-3,5-dihydro-4H-pyrrolo[3,2-d]pyrimidin-4-one] | 46.4% |  | 
12 | CCCc1c(/C=N/O)n(C)c2c(=O)[nH]c(-c3cc(S(=O)(=O)N4CCC(CCO)CC4)ccc3OCC)nc12 [Compound 17, (E)-2-(2-ethoxy-5-((4-(2-hydroxyethyl)piperidin-1-yl)sulfonyl)phenyl)-5-methyl-4-oxo-7-propyl-4,5-dihydro-3H-pyrrolo[3,2-d]pyrimidine-6-carbaldehyde oxime] | 33.2% |  | 
13 | CCCc1cn(C)c2c(=O)[nH]c(-c3cc(S(=O)(=O)N4CCN(CCCO[N+](=O)[O-])CC4)ccc3OCC)nc12 [Compound 2b, 3-(4-((4-ethoxy-3-(5-methyl-4-oxo-7-propyl-4,5-dihydro-3H-pyrrolo[3,2-d]pyrimidin-2-yl)phenyl)sulfonyl)piperazin-1-yl)propyl nitrate] | 18.2% | 2 nM | 
14 | CCCOc1ccc(S(=O)(=O)N2CCC(CCCO[N+](=O)[O-])CC2)cc1-c1nc2c(CCC)cn(CC)c2c(=O)[nH]1 [Compound 1d, 3-(1-((3-(5-ethyl-4-oxo-7-propyl-4,5-dihydro-3H-pyrrolo[3,2-d]pyrimidin-2-yl)-4-propoxyphenyl)sulfonyl)piperidin-4-yl)propyl nitrate] | 13.4% | > 10 nM | 
15 | CCCc1cn(C)c2c(=O)[nH]c(-c3cc(S(=O)(=O)N4CCC(CCO)CC4)ccc3OCC)nc12 [Compound 14, 2-(2-ethoxy-5-((4-(2-hydroxyethyl)piperidin-1-yl)sulfonyl)phenyl)-5-methyl-7-propyl-3,5-dihydro-4H-pyrrolo[3,2-d]pyrimidin-4-one] |  | 0.3 nM | % Bound in Plasma [3]: 99.43%; fraction unbound [3]: 0.0057; recovery [3]: 98.9%
16 | CCCOc1ccc(S(=O)(=O)N2CCC(CCO)CC2)cc1-c1nc2c(CCC)c(CO)n(CC)c2c(=O)[nH]1 [Compound 6, 5-ethyl-2-(5-((4-(2-hydroxyethyl)piperidin-1-yl)sulfonyl)-2-propoxyphenyl)-6-(hydroxymethyl)-7-propyl-3,5-dihydro-4H-pyrrolo[3,2-d]pyrimidin-4-one] |  | 2.4 nM | 
17 | CCCOc1ccc(S(=O)(=O)N2CCC(CCCO)CC2)cc1-c1nc2c(CCC)cn(CC)c2c(=O)[nH]1 [Compound 15, 5-ethyl-2-(5-((4-(3-hydroxypropyl)piperidin-1-yl)sulfonyl)-2-propoxyphenyl)-7-propyl-3,5-dihydro-4H-pyrrolo[3,2-d]pyrimidin-4-one] | 50.3% | 1.8 nM | 
18 | CC(=O)CC(c1ccccc1)c1c(O)c2ccccc2oc1=O (stereo not shown) [Warfarin, reference compound] |  |  | % Bound in Plasma [3]: 97.28%; fraction unbound [3]: 0.0272; recovery [3]: 101%
19 | CCCc1cn(C)c2c(=O)[nH]c(-c3cc(S(=O)(=O)N4CCN(CCO[N+](=O)[O-])CC4)ccc3OCC)nc12 [Compound 2d, 2-(4-((4-ethoxy-3-(5-methyl-4-oxo-7-propyl-4,5-dihydro-3H-pyrrolo[3,2-d]pyrimidin-2-yl)phenyl)sulfonyl)piperazin-1-yl)ethyl nitrate] | 57.8% | 1.2 nM | 
20 | CCCc1nn(C)c2c(=O)[nH]c(-c3cc(S(=O)(=O)N4CCN(C)CC4)ccc3OCC)nc12 [sildenafil, reference compound] |  |  | % Bound in Plasma [3]: 96.41%; fraction unbound [3]: 0.0359; recovery [3]: 104%
21 | CCCOc1ccc(S(=O)(=O)N2CCC(CCO)CC2)cc1-c1nc2c(CCC)cn(CC)c2c(=O)[nH]1 [Compound 5, 5-ethyl-2-(5-((4-(2-hydroxyethyl)piperidin-1-yl)sulfonyl)-2-propoxyphenyl)-7-propyl-3,5-dihydro-4H-pyrrolo[3,2-d]pyrimidin-4-one] | 74.4% | 0.29 nM | % Bound in Plasma [3]: 99.87%; fraction unbound [3]: 0.0013; recovery [3]: 102%; PDE5 inhibition (in words) ([2]; human cGMP-specific PDE5, refers to Table 1): much more potent PDE5 inhibitor
